Experimental data taken from US20240115682A1, “METHODS OF TREATING CANCER USING HETEROARYL-BIPHENYL AMIDE DERIVATIVES” (CHEMOCENTRYX, INC., priority 2020, published 2024).
“Also recorded” adds a separate entry of the source. Like-named read-outs stand apart in the source and are kept apart here.

Legend:
[1] = biological target: human PD-L1 / human PD-1 interaction (Homo sapiens (Human), UniProt Q9NZQ7); test: PD-1/PD-L1 binding ELISA
Protocol: 96 Well plates were coated with 1 μg/mL of human PD-L1 (obtained from R&D) in PBS overnight at 4° C. The wells were then blocked with 2% BSA in PBS (W/V) with 0.05% TWEEN-20 for 1 hour at 37° C. The plates were washed 3 times with PBS/0.05% TWEEN-20 and the compounds were serial diluted (1:5) in dilution medium and added to the ELISA plates. Human PD-1 and biotin 0.3 μg/mL (ACRO Biosystems) were added and incubated for 1 hour at 37° C. then washed 3 times with PBS/0.05% TWEEN-20. A second block was performed with 2% BSA in PBS (W/V)/0.05% TWEEN-20 for 10 min at 37° C. and the plates were washed 3 times with PBS/0.05% TWEEN-20. Streptavidin-HRP was added for 1 hour at 37° C. then the plates were washed 3 times with PBS/0.05% TWEEN-20. TMB substrate was added and reacted for 20 min at 37° C. A stop solution (2 N aqueous H2SO4) was added. The absorbance was read at 450 nm using a micro-plate spectrophotometer. The results are shown in Table 1: IC50 values are provided as follows: from 1000 to 10,000 nM (+); from 10 up to 1000 nM (++); less than 10 nM (+++).
ELISA: This assay was performed substantially as described in Biological Example 1.

PD-1/PD-L1 interaction = test: PD-1/PD-L1 Blockade Cell-based Assay (NFAT luciferase reporter, CHO PD-L1 + Jurkat PD-1); details: Homo sapiens; CHO PD-L1 / Jurkat PD-1 co-culture; read-out: average EC50, NFAT promoter-driven luciferase expression
human T cells = test: Mixed Lymphocyte Reaction (MLR), IFNgamma release; format: cell-based; details: for EC50: Homo sapiens, T-cell, T cells from different donors, read-out: EC50, release of INFgamma from human T cells
Text: PBMCs Isolation: Peripheral blood mononuclear cells (PBMCs) were isolated from buffy coat from LRS chambers (leukoreduction systems) from healthy donors by density gradient centrifugation using StemCell SepMate™-50 tubes ([…] Technologies, Vancouver, CA) containing Ficoll-Paque Plus (Sigma Aldrich Inc., St. Louis, MO).
Generation of monocyte derived dendritic cells: CD14^+ monocytes were isolated from PBMCs by magnetic separation using human CD14^+ MicroBeads (MACS Miltenyi Biotech, Bergisch Gladbach, Germany) and an autoMACS® Pro Separator. Isolated monocytes were plated at a concentration of 1×10^6 cells/ml and differentiated to dendritic cells by adding GM-CSF (100 ng/ml) and IL-4 (50 ng/ml) for 6 days. Fresh media with cytokine supplement were added on day 0 and day 2. Mature dendritic cells were induced on day 6 by addition of IL-6 (2000 IU/ml), IL-1B (400 IU/ml) (Peprotech, Inc. Rocky Hill, NJ), TNFalpha (2000 IU/ml) and PGE2 (2 ug/ml) (Sigma Aldrich, Inc.) and cultured for 24 hours.
Preparation of human effector cells: CD4^+ T-Cells were isolated from PBMCs by magnetic separation using human CD4^+ MicroBeads (MACS Miltenyi Biotech) and an autoMACS® Pro Separator.
Mixed Lymphocyte Reaction (MLR): DC and CD4^+T-Cells from unmatched donors were cultured together in a ratio of 1:10 for 5 days in 96 well-flat bottom plates (Thermo Scientific). Test compounds were added as indicated at starting concentration of 1 μM with 1:4 dilutions with DMSO. PD-L1 antibody (AZ Medi4736 analog) and isotype control (Human IgG1, Kappa Isotype Control) (CrownBio, Beijing) were used as positive and negative control respectively. Supernatants were harvested after 5 days of incubation and detection of human IFNg was performed by ELISA using Human IFN-gamma DuoSet ELISA (R&D Systems, Minneapolis) as per manufacturer's instructions.

A375-eGFP cells = test: In Vitro Immunotherapy Potency Assay (PBMC-mediated tumor cell killing); format: cell-based; details: in the presence of pre-stimulated primary human PBMCs
Protocol: In Vitro Immunotherapy Potency Assay: A375-eGFP-Puro Cells (ATCC) were grown in complete medium (DMEM+10% FBS+P/S 1×) containing lug/ml of puromycin. Human peripheral blood mononuclear cells (hPBMCs) were isolated from buffy coat from LRS chambers (leukoreduction systems) from healthy donors by density gradient centrifugation using StemCell SepMate™-50 tubes ([…] Technologies, Vancouver, CA) containing Ficoll-Paque Plus (Sigma Aldrich Inc., St. Louis, MO). […] Cells were washed twice and re-suspended into regular growth media. 3×10^4 A375-eGFP-Puro cells were seeded in 96-well clear bottom black TC treated plates in a final volume of 100 ul (Corning). Test compounds or anti-human PD-L1 antibody (AZ Medi4736 analog, CrownBio, Beijing) were added to the wells at different concentrations. SEB stimulated hPBMCs were added to the wells at a ratio of E:T (Effector cell: Target Cell) of […]. Mixed cells were incubated for 96 to 120 hours at 37° C. in 5% CO2. Medium was carefully aspired and 100 μl of PBS 1× was added to each well. Fluorescence from A375-eGFP cells was detected using FlexStation 3 plate reader.

PD-L1 [2] = biological target: T1, PD-L1 (Homo sapiens (Human), UniProt Q9NZQ7); test: PathHunter PD-L1 Dimerization Assay in U2OS cells; format: cell-based
Protocol: Dimerization Assay PD-L1 protein dimerization was assessed in vitro by chemiluminescent detection using PathHunter® Dimerization assay (DiscoverX, Fremont, CA). The Assay was performed following vendor's protocol. 2×10^4 U2OS cells were plated in 96-well white bottom TC treated plates (Costar, San Jose, CA) in a final volume of 100 ul. ChemoCentryx compounds or anti-human PD-L1 antibody (AZ Medi4736 analog, CrownBio, Beijing) were added to experimental cells at different concentrations and incubated for 16 hours at 37° C. in 5% CO2. 110 ul of PathHunter Flash detection reagent (DiscoverX) was added to each well and incubated for 1 hour at room temperature in the dark. Chemiluminescent signal was measured on a FlexStation 3 plate reader (Molecular Devices, San Jose, CA) at a speed of 100 ms/well.
Target sequence in this assay (Q9NZQ7 19-290): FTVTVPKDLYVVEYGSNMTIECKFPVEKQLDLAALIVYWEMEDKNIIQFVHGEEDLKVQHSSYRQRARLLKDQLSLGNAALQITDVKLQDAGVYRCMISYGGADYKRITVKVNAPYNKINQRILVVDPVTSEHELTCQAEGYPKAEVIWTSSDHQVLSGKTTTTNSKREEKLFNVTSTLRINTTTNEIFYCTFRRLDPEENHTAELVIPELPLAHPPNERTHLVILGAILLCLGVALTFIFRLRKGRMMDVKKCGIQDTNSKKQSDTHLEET
Target sequence in this assay (Q9NZQ7 19-290): as above

PD-L1 [3] = biological target: T1, PD-L1; test: PD-L1 Internalization Assay (surface PD-L1 by flow cytometry); format: cell-based; details: 37° C.
Protocol: Internalization Assay: MC38-hPD-L1 cells (GenOway S.A., France) and RKO cells (ATCC) growing at 37° C. in 5% CO2 were detached, resuspended in cold FACS buffer (PBS 1× with 10% FBS and 0.1% azide) and added to 96-well assay plates (V-Bottom) (Axygen, Union City, CA) at a concentration of 10×10^4 cells/well. ChemoCentryx compounds or anti-human PD-L1 antibody (AZ Medi4736 analog) were added to the wells at different concentrations and incubated for 2 hours at 37° C. or 4° C. Cells were washed twice with iced cold FACS buffer and stained with recombinant rabbit monoclonal anti human PD-L1 antibody ([28-8] (PE) (ab209962), Abcam) or recombinant rabbit monoclonal IgG Isotype control ([EPR25A] (PE) (ab209478), Abcam) for 30 minutes on ice. Cells were washed twice with FACS buffer before performing FACS analysis. Data were analyzed using FlowJo software.
Target sequence in this assay (Q9NZQ7 19-290): as above

MC38-hPD-L1 tumor = MC38-hPD-L1 tumor model in C57BL/6 mice; format: in vivo, mouse; details: for animals that achieved complete regression: 10 mice in each group, compounds 30 mg/kg orally b.i.d., antibody i.p. twice a week
Protocol: Generation and culture of MC38-hPD-L1 cells: The compounds are only known to cross-react with human PD-L1, therefore a syngeneic tumor model with […] MC-38 colon tumor cells expressing human PD-L1 (MC38-hPD-L1 tumor model) was used. The MC38-hPD-L1 cells were generated by GenOway. Endogenous mouse PD-L1 was first knocked out in MC38 cells using CRISPR technology, then human PDL1 was stably transfected in these mouse PD-L1 Knock-out MC38 cells. The MC38-hPD-L1 cells were cultured under standard conditions for MC38 cells (DMEM with 10% fetal bovine serum and Penicillin/Streptomycin) with G418 for maintaining transgene expression. 2 days prior to inoculation of these cells to mice, cells were trysinized and seeded without antibiotics.
(§1) In Vivo Studies: 8-week-old, female C57BL/6 mice were injected s.c. with 5×10^5 MC38-hPD-L1 cells in the right flank. 9 days after tumor inoculation mice were randomly assigned to treatment groups based on tumor size. Only mice that developed measurable tumors were enrolled in the studies. Anti-PD-L1 (Durvalumab) or isotype control was given i.p. twice a week at 100 ug per mouse per dose for 2 weeks. Compound 2.001 and Compound 2.002 suspended in 1% HPMC was dosed p.o. daily at indicated doses, dosing volume 100 μl per mouse. The vehicle, 1% HPMC, was dosed at the same volume with the same frequency for control animals.
Tumor volume was measured three times per week using a digital caliper and calculated as (width^2*length/2). Mice were sacrificed when tumor volumes reached 2,000 mm^3 in accordance with IACUC guidelines.
Tumor width (W) and length (L) were measured with calipers 3 times a week and the tumor volume was calculated using the formula V=(W (2)×L)/2. When tumors reach 2000 mm^3 mice were sacrificed and tumor excised for further analysis.

PD-L1 [4] = biological target: T1, PD-L1; test: PD-L1 occupancy on cells isolated from MC38-hPD-L1 tumors (flow cytometry); format: in vivo, mouse; details: cells from treated MC38-hPD-L1 tumors
Protocol: (§2) Cellular phenotyping of tumor infiltrates: Excised tumors were finely chopped with a blade and meshed through 200 um sieve. Cells were then filtered through a […] sieve. Cells were washed and resuspended in FACS buffer (PBS 1× with 10% FBS and 0.1% azide).
(§3) Antibodies for flow cytometry were obtained from BioLegend (San Diego, CA). Flow cytometer panel included CD45 in FITC, PD-L1 in PE, CD8 in APC, CD4 in APC-Cy7. Flow cytometry data were acquired with a FACSCanto II (BD Biosciences, San Jose, CA) cytometer and analyzed using FlowJO v10.2 (FlowJo, Ashland, OR)
To examine the extent Compound 2.001 occupys PD-L1 on tumor cells, we utilized another PD-L1 detection antibody to stain the cells isolated from these tumors.
Target sequence in this assay (Q9NZQ7 19-290): as above

[5] = tested on: tumor infiltrating CD8+ and CD4+ T cells; test: Cellular phenotyping of tumor infiltrates in MC38-hPD-L1 tumor model; format: in vivo, mouse; details: MC38-hPD-L1 tumors
Protocol: as §2, §3

[6] = Plasma compound concentration in MC38-hPD-L1 tumor model; format: in vivo, mouse; details: trough after 3 days of dosing, oral
Protocol: as §1

[7] = PD-1/PD-L1 ELISA, class symbols, read-out: ELISA IC50
[8] = average from multiple assays, read-out: average IC50, inhibition of direct interaction of PD-L1 to PD-1

Sequence of human PD-L1 / human PD-1 interaction (Q9NZQ7 19-239): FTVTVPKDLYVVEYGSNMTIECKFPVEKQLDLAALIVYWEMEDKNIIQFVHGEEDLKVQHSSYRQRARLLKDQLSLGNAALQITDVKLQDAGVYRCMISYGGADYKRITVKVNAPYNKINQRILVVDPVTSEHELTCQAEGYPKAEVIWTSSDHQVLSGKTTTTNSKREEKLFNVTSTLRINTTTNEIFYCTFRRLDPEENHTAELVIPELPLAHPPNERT

| IC50 [1, 7] [nM] | IC50 [1, 8] [nM] | EC50 (PD-1/PD-L1 interaction) [nM] | EC50 (human T cells) [nM] | PD-L1 occupancy on tumor cells (PD-L1 [4]) | plasma compound concentrations [6] | PD-L1 dimerization signal (PD-L1 [2]; listed as anti-PD-L1 antibody) | Compound | release of INFgamma from human T cells (human T cells) | killing of GFP labeled human cancer cell line A375 (A375-eGFP cells) | PD-L1 dimerization signal (PD-L1 [2]) | surface PD-L1 levels (PD-L1 [3]) | animals that achieved complete regression (MC38-hPD-L1 tumor) [animals] | tumor infiltrating CD8+ and CD4+ T cells [5] | mice with complete eradication of the tumors (MC38-hPD-L1 tumor; 30 mg/kg (b.i.d.), orally) | tumor growth (MC38-hPD-L1 tumor; dosed orally, several doses) |
| --- | --- | --- | --- | --- | --- | --- | --- | --- | --- | --- | --- | --- | --- | --- | --- |
| < 10 | 0.3 | 52 | < 100 | near complete PD-L1 occupancy |  |  | COc1nc(-c2cccc(-c3cccc(NC(=O)c4cn(C)c(=O)n(C)c4=O)c3C)c2Cl)ccc1CNC[C@@H]1CCC(=O)N1 [Compound 2.001] | dose dependently increase | promote killing | strongly induced the dimerization signal; also recorded: induce PD-L1 dimerization | profoundly reduces surface PD-L1 levels; also recorded: lower the surface PD-L1 levels | 4 | increased |  |  |
| < 10 | 0.4 | 46 | < 100 |  | dose-dependency |  | COc1nc(-c2cccc(-c3cccc(NC(=O)c4cn(C)c(=O)n(C)c4=O)c3Cl)c2Cl)ccc1CNC[C@@H]1CCC(=O)N1 [Compound 2.002] | dose dependently increase | promote killing | strongly induced the dimerization signal; also recorded: induce PD-L1 dimerization | profoundly reduces surface PD-L1 levels; also recorded: lower the surface PD-L1 levels |  |  | Eight of the ten | dose dependently suppresses tumor growth; also recorded: tumor growth suppression in a dose-dependent manner |
| < 10 |  |  |  |  |  |  | COc1nc(-c2cccc(-c3cccc(NC(=O)c4cn(C)c(=O)n(C)c4=O)c3C)c2Cl)ccc1CN[C@@H]1CCOC[C@@H]1O [Compound 2.003] |  |  |  |  |  |  |  |  |
|  |  |  |  |  |  | do not induce such signal | Durvalumab [reference compound] |  |  |  | no effect | 6 |  |  |  |
